Patent US20230158151A1 (NURIX THERAPEUTICS, INC., priority 2021, published 2023)

Target: T1, ITK (Homo sapiens, UniProt Q08881)
T1 construct: Compounds provided herein were assayed in vitro with ITK HiBit cell lines; endogenous in cells; host or cells: Molt4 (ATCC CRL-1552 [sic]), monoclonal clone 1C10
T1 sequence (Q08881 1-620): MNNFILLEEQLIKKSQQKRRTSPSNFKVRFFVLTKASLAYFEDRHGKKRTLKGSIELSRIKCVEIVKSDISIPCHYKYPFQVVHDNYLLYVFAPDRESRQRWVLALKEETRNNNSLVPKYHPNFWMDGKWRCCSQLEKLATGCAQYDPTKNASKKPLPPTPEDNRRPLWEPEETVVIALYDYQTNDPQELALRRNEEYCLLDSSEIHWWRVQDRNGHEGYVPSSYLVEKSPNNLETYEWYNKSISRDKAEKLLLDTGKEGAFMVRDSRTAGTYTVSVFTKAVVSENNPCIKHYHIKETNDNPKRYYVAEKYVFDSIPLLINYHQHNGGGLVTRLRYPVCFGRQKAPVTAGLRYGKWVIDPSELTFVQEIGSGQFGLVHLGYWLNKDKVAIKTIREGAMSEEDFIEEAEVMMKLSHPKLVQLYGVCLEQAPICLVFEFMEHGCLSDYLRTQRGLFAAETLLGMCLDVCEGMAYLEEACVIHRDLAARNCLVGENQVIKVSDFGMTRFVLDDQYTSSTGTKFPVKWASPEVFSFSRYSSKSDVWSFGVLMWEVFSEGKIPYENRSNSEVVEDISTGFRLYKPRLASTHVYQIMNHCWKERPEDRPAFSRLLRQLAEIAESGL
Test: ITK Degradation HiBiT Assay
Format: cell-based
Settings: C-terminal HiBiT-tagged Molt4 cells, 4 hrs incubation; for Dmax: MOLT-4, read-out: HiBiT DMax (%)
Procedure: Compounds provided herein were assayed in vitro with ITK HiBit cell lines. Compound dilution series (11-point, 5 fold dilutions in DMSO, columns 2-12 with replicate in rows A/B, C/D, E/F, G, H at 2000× the final required concentrations were prepared in 96 well plate (Falcon, cat. no. 353077). Column 1, rows A-H were control DMSO. The 2000× solutions ranged from 2 mM to 1.024 nM (final assay concentration range 1 μM to […]). The 2000× solutions were added to cells in […], for a final DMSO concentration of 0.5% and final assay compound concentration of 1×. For the cells, C-terminal HiBiT-tagged Molt4 cells (ATCC CRL-1552, monoclonal cell line clone 1C10) were plated at 1×10^6 cells/mL, 100 μL/well ([…]) in complete RPMI (10% FBS, 1% L-glutamine). The cells were incubated with compound 32 and compound 30 for 4 hrs at 32° C./6% CO2.
Following incubation, 100 μL of complete Nano-Glo HiBiT Lytic Detection Reagent (Nano-Glo HiBiT Lytic Buffer with 1:50 Nano-Glo HiBiT Lytic Substrate and 1:100 LgBiT Protein; Promega cat. no. N3O40) was added. Cells were further incubated for 10 min at room temperature (RT). Luminescence units (LU) were read on an EnVision plate reader (Perkin Elmer, 0.1 sec per well). Percent ITK remaining per sample was calculated as follows: […]
Using Graphpad Prism, % ITK remaining values were plotted as a function of compound concentration. To determine DC50 and Dmax values, resulting curves were fit to the Prism curve-fitting equation “log(inhibitor) vs response−Variable slope (four parameters)” (reported best fit value IC50 used as DC50). ITK was measured with antibody-based MSD (Meso-Scale Discovery) assays shown below.

Dmax [%]	DC50 [nM]	SMILES
91	1.3	C[C@@]12Cc3[nH]nc(C(=O)Nc4cnn(C5CN(C(=O)C6CCN(c7ccc(C8CCC(=O)NC8=O)cn7)CC6)C5)c4)c3C[C@@H]1C2(F)F (stereo partly drawn) [Compound 13, (4aS,5aR)—N-(1-(1-(1-(5-(2,6-dioxopiperidin-3-yl)pyridin-2-yl)piperidine-4-carbonyl)azetidin-3-yl)-1H-pyrazol-4-yl)-5,5-difluoro-5a-methyl-1,4,4a,5,5a,6-hexahydrocyclopropa[f]indazole-3-carboxamide]
90		C[C@@]12Cc3[nH]nc(-c4cc5ccc(N6CCC7(CCN(C(=O)C8CCN(c9ccc(C%10CCC(=O)NC%10=O)cn9)CC8)CC7)C6=O)cc5[nH]4)c3C[C@@H]1C2(F)F (stereo partly drawn) [Compound 16, 3-(6-(4-(2-(2-((4aS,5aR)-5,5-difluoro-5a-methyl-1,4,4a,5,5a,6-hexahydrocyclopropa[f]indazol-3-yl)-1H-indol-6-yl)-1-oxo-2,8-diazaspiro[4.5]decane-8-carbonyl)piperidin-1-yl)pyridin-3-yl)piperidine-2,6-dione]
83	< 0.01	C[C@@]12Cc3[nH]nc(C(=O)Nc4cnn([C@H](c5ccccc5)C5CN(C(=O)C6CN(c7ccc(C8CCC(=O)NC8=O)cn7)C6)C5)c4)c3C[C@@H]1C2(F)F (stereo partly drawn) [Compound 21, (4aS,5aR)—N-(1-((1S)-(1-(1-(5-(2,6-dioxopiperidin-3-yl)pyridin-2-yl)azetidine-3-carbonyl)azetidin-3-yl)(phenyl)methyl)-1H-pyrazol-4-yl)-5,5-difluoro-5a-methyl-1,4,4a,5,5a,6-hexahydrocyclopropa[f]indazole-3-carboxamide]
78		C[C@@]12Cc3[nH]nc(C(=O)Nc4cnn(C5CN(C(=O)C6CN(c7ccc(C8CCC(=O)NC8=O)cn7)C6)C5)c4)c3C[C@@H]1C2(F)F (stereo partly drawn) [Compound 14, (4aS,5aR)—N-(1-(1-(1-(5-(2,6-dioxopiperidin-3-yl)pyridin-2-yl)azetidine-3-carbonyl)azetidin-3-yl)-1H-pyrazol-4-yl)-5,5-difluoro-5a-methyl-1,4,4a,5,5a,6-hexahydrocyclopropa[f]indazole-3-carboxamide]
85	0.25	C[C@@]12Cc3[nH]nc(C(=O)Nc4cnn(C5CN(CC6CCN(c7ccc(C8CCC(=O)NC8=O)cn7)CC6)C5)c4)c3C[C@@H]1C2(F)F (stereo partly drawn) [Compound 12, (4aS,5aR)—N-(1-(1-((1-(5-(2,6-dioxopiperidin-3-yl)pyridin-2-yl)piperidin-4-yl)methyl)azetidin-3-yl)-1H-pyrazol-4-yl)-5,5-difluoro-5a-methyl-1,4,4a,5,5a,6-hexahydrocyclopropa[f]indazole-3-carboxamide]

Further lines, the compound ahead of its results:

SMILES	Dmax [%]	DC50 [nM]
CC1(C)CCc2c(-c3cc4ccc(C(=O)N5CCC(CC6CCN(c7ccc(C8CCC(=O)NC8=O)cn7)CC6)CC5)cc4[nH]3)n[nH]c2C1 (stereo not drawn) [Compound 19, 3-(6-(4-((1-(2-(6,6-dimethyl-4,5,6,7-tetrahydro-1H-indazol-3-yl)-1H-indole-6-carbonyl)piperidin-4-yl)methyl)piperidin-1-yl)pyridin-3-yl)piperidine-2,6-dione]	73	
CN(C(=O)CCC1CCN(c2ccc(C3CCC(=O)NC3=O)cn2)C1)c1ccc2cc(-c3n[nH]c4c3C[C@@H]3C(F)(F)[C@]3(C)C4)[nH]c2c1 (stereo partly drawn) [Compound 25, N-(2-((4aS,5aR)-5,5-difluoro-5a-methyl-1,4,4a,5,5a,6-hexahydrocyclopropa[f]indazol-3-yl)-1H-indol-6-yl)-3-(1-(5-(2,6-dioxopiperidin-3-yl)pyridin-2-yl)pyrrolidin-3-yl)-N-methylpropanamide]	48	
CC1(C)CCc2c(-c3cc4ccc(C(=O)N5CCN(CCCCc6ccc(C7CCC(=O)NC7=O)cc6)CC5)cc4[nH]3)n[nH]c2C1 (stereo not drawn) [Compound 40, 3-(4-(4-(4-(2-(6,6-dimethyl-4,5,6,7-tetrahydro-1H-indazol-3-yl)-1H-indole-6-carbonyl)piperazin-1-yl)butyl)phenyl)piperidine-2,6-dione]	68	15
C[C@@]12Cc3[nH]nc(-c4cc5ccc(C(=O)N6CCN(CC7CCN(c8ccc(C9CCC(=O)NC9=O)cn8)CC7)CC6)cc5[nH]4)c3C[C@@H]1C2(F)F (stereo partly drawn) [Compound 20, 3-(6-(4-((4-(2-((4aS,5aR)-5,5-difluoro-5a-methyl-1,4,4a,5,5a,6-hexahydrocyclopropa[f]indazol-3-yl)-1H-indole-6-carbonyl)piperazin-1-yl)methyl)piperidin-1-yl)pyridin-3-yl)piperidine-2,6-dione]	83	< 0.001
CN(C(=O)c1ccc2cc(-c3n[nH]c4c3CCC(C)(C)C4)[nH]c2c1)C1CCN(CC2CCN(c3ccc(C4CCC(=O)NC4=O)cn3)CC2)CC1 (stereo not drawn) [Compound 18, 2-(6,6-dimethyl-4,5,6,7-tetrahydro-1H-indazol-3-yl)-N-(1-((1-(5-(2,6-dioxopiperidin-3-yl)pyridin-2-yl)piperidin-4-yl)methyl)piperidin-4-yl)-N-methyl-1H-indole-6-carboxamide]	87	0.68
CC1(C)CCc2c(-c3cc4ccc(C(=O)N5CCN(CCC#Cc6ccc(C7CCC(=O)NC7=O)cc6)CC5)cc4[nH]3)n[nH]c2C1 (stereo not drawn) [Compound 34, 3-(4-(4-(4-(2-(6,6-dimethyl-4,5,6,7-tetrahydro-1H-indazol-3-yl)-1H-indole-6-carbonyl)piperazin-1-yl)but-1-yn-1-yl)phenyl)piperidine-2,6-dione]	60	2.6
CN(C(=O)C1CCN(CC2CCN(c3ccc(C4CCC(=O)NC4=O)cn3)CC2)CC1)c1ccc2cc(-c3n[nH]c4c3C[C@@H]3C(F)(F)[C@]3(C)C4)[nH]c2c1 (stereo partly drawn) [Compound 5, N-(2-((4aS,5aR)-5,5-difluoro-5a-methyl-1,4,4a,5,5a,6-hexahydrocyclopropa[f]indazol-3-yl)-1H-indol-6-yl)-1-((1-(5-(2,6-dioxopiperidin-3-yl)pyridin-2-yl)piperidin-4-yl)methyl)-N-methylpiperidine-4-carboxamide]	85	
CN(C(=O)C1CCN(C(=O)c2ccc3cc(-c4n[nH]c5c4CCC(C)(C)C5)[nH]c3c2)CC1)C1CCN(c2ccc(C3CCC(=O)NC3=O)cn2)CC1 (stereo not drawn) [Compound 33, 1-(2-(6,6-dimethyl-4,5,6,7-tetrahydro-1H-indazol-3-yl)-1H-indole-6-carbonyl)-N-(1-(5-(2,6-dioxopiperidin-3-yl)pyridin-2-yl)piperidin-4-yl)-N-methylpiperidine-4-carboxamide]	80	0.04
CC1(C)CCc2c(-c3cc4ccc(C(=O)N5CCC(CN6CCN(c7cccc(C8CCC(=O)NC8=O)n7)CC6)CC5)cc4[nH]3)n[nH]c2C1 (stereo not drawn) [Compound 41]	27	
C[C@@]12Cc3[nH]nc(-c4cc5ccc(N6CCC7(CCN(CCC8CCN(c9ccc(C%10CCC(=O)NC%10=O)cn9)CC8)CC7)C6=O)cc5[nH]4)c3C[C@@H]1C2(F)F (stereo partly drawn) [Compound 17, 3-(6-(4-(2-(2-(2-((4aS,5aR)-5,5-difluoro-5a-methyl-1,4,4a,5,5a,6-hexahydrocyclopropa[f]indazol-3-yl)-1H-indol-6-yl)-1-oxo-2,8-diazaspiro[4.5]decan-8-yl)ethyl)piperidin-1-yl)pyridin-3-yl)piperidine-2,6-dione]	89	< 0.01
